Measured values: patent US20050222110A1, “Use of loteprednol etabonate for the treatment of dry eye” (priority 2004, published 2005)

Experiments:
[1] = Clinical trial in KCS patients: intraocular pressure; type: in vivo, human; conditions: one month of therapy; mean IOP and individual patients
Description: (§1) A randomized, double-masked, placebo-controlled, multicenter, pilot study was conducted in compliance with ICH Good Clinical Practice and the Declaration of Helsinki. Approval was obtained from an Institutional Review Board for each study site before initiating the study. Written informed consent was obtained from all patients before any study specific investigations were performed.
(§2) Patients were randomly assigned to receive either Lotemax® Bausch and Lomb Inc. Rochester N.Y., or placebo four times a day. Lotemax® (loteprednol etabonate ophthalmic suspension, 0.5%) was supplied in 7.5 mL (5.0 mL fill) white, low density polyethylene dropper bottles with white caps for masking purposes. Placebo (the vehicle of Lotemax®) was supplied in identical bottles. Preservative Free Moisture Eyes™ Lubricant Eye Drops (Bausch & Lomb) were supplied in unit dose containers.
(§3) Safety was assessed by fundoscopy, lens examination and biomicroscopy, by tests of visual acuity and intraocular pressure, and by monitoring adverse events and changes in symptomatology. Adverse events were evaluated by the investigator as to severity (mild, moderate, severe) and relationship of the event to the study drug (probable, possible, unlikely, or unknown).

[2] = Clinical trial in KCS patients: adverse events and toxicity; type: in vivo, human; conditions: following one month of therapy
Description: as §1, §2, §3

[3] = 0.2%; up to 3 years; 265 patients; allergic conjunctivitis; cited from earlier work
[4] = system: keratoconjunctivitis sicca (KCS) in patients with delayed tear clearance; test: Clinical trial in KCS patients: corneal fluorescein staining score; type: in vivo, human; conditions: subset with more severe clinical inflammatory signs at entry
Description: as §1
In addition, they were required to meet the following criteria in at least one eye: • 1. delayed tear clearance defined by a standardized visual scale score ≧3^15 • 2. at least one symptom >30 mm on the visual analog scale (VAS) • 3. composite corneal staining score >3
Patients were randomly assigned to receive either Lotemax® Bausch and Lomb Inc. Rochester N.Y., or placebo four times a day. […]
Patients attended for 5 visits. […] The fluorescence was graded between 0 and 6 using a standard color comparison scale. […] The corneal staining was evaluated 5 minutes after the instillation of the 2% fluorescein, viewing the cornea through a slit lamp with blue light and a No. 11 Wratten filter (See Table 2 below).
As is traditional for studies of this kind, two primary variables were defined representing subjective evaluation by the patient and objective evaluation based on the clinical examination findings. […] Each area was scored according to the corneal staining grading scale (Table 2 above). […]

Compound: CCOC(=O)O[C@]1(C(=O)OCCl)CC[C@H]2[C@@H]3CCC4=CC(=O)C=C[C@]4(C)[C@H]3[C@@H](O)C[C@@]21C [loteprednol, (11β,17α),-17-[(Ethoxycarbonyl)oxy]-11-hydroxy-3-oxoandrosta-1,4-diene-17-carboxylic acid chloromethyl ester]
- Elevation of IOP [1]: neither elevation of the mean IOP nor any individual with a clinically important elevation of the IOP
- Toxicity [2]: complete lack of toxicity
- Cataract formation [3]: no cataract formation was observed
- Mean intraocular pressure compared to pretreatment values [3]: not different from baseline
- Central corneal fluorescein staining, improvement ([4]; four weeks): ~20%
- Central corneal fluorescein staining, improvement ([4]; two weeks): approximately 30%
